The record followed here is patent US12577257B2, “Heterocyclic compounds” (Hoffmann-La Roche Inc., priority 2018, dated 2026).

For the experiment, the target named is T1, MAGL (Homo sapiens, UniProt Q99685).
T1 sequence (Q99685 1-303): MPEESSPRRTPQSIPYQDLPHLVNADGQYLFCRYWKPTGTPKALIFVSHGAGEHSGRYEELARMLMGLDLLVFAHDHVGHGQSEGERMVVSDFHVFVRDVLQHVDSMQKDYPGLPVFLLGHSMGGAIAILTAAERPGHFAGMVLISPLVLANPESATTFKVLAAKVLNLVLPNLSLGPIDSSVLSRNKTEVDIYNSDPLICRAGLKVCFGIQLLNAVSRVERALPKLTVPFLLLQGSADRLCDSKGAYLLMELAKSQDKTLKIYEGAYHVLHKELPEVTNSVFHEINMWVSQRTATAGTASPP
The experiment can be described thus: 2-AG assay: MAGL hydrolysis of 2-arachidonoylglycerol to arachidonic acid, followed by mass spectrometry. The experiment is classed as biochemical. The note with it: footnote [a]: measured in 2-AG assay. How it is done: Alternatively, compounds were profiled for MAGL inhibitory activity by determining the enzymatic activity by following the hydrolysis of the natural substrate 2-arachidonoylglycerol resulting in arachidonic acid, which can be followed by mass spectrometry. This assay is hereinafter abbreviated “2-AG assay”.
The 2-AG assay was carried out in 384 well assay plates (PP, Greiner Cat #784201) in a total volume of 20 μL. Compound dilutions were made in 100% DMSO (VWR Chemicals 23500.297) in a polypropylene plate in 3-fold dilution steps to give a final concentration range in the assay from 12.5 μM to […]. 0.25 μL compound dilutions (100% DMSO) were added to 9 μL MAGL in assay buffer (50 mM TRIS (GIBCO, 15567-027), 1 mM EDTA (Fluka, 03690-100 ml), 0.01% (v/v) Tween. After shaking, the plate was incubated for 15 min at RT. To start the reaction, 10 μL 2-arachidonoylglycerol in assay buffer was added. The final concentrations in the assay was […] and 8 μM 2-arachidonoylglycerol. After shaking and 30 min incubation at RT, the reaction was quenched by the addition of 40 μL of acetonitrile containing 4 μM of d8-arachidonic acid. The amount of arachidonic acid was traced by an online SPE system (Agilent Rapidfire) coupled to a triple quadrupole mass spectrometer (Agilent 6460). A C18 SPE cartridge (G9205A) was used in an acetonitrile/water liquid setup. The mass spectrometer was operated in negative electrospray mode following the mass transitions 303.1→259.1 for arachidonic acid and 311.1→267.0 for d8-arachidonic acid. The activity of the compounds was calculated based on the ratio of intensities [arachidonic acid/d8-arachidonic acid].

Broadly, the IC50 is the concentration that gives 50% inhibition. In turn, `O=C1CO[C@H]2CCN(C(=O)N3CC4(CN(Cc5ccc(F)cc5Cl)C4)C3)C[C@H]2N1` [Example 11, (4aR,8aS)-6-(6-(2-Chloro-4-fluorobenzyl)-2,6-diazaspiro[3.3]heptane-2-carbonyl)hexahydro-2H-pyrido[4,3-b][1,4]oxazin-3(4H)-one] registered an IC50 of 19.8 nM. In other words, the double-digit nanomolar range.

`O=C1CO[C@H]2CCN(C(=O)N3CC4(CN(Cc5ccc(C(F)(F)F)cc5F)C4)C3)C[C@H]2N1` [Example 12, (4aR,8aS)-6-(6-(2-Fluoro-4-(trifluoromethyl)benzyl)-2,6-diazaspiro[3.3]heptane-2-carbonyl)hexahydro-2H-pyrido[4,3-b][1,4]oxazin-3(4H)-one]: the IC50 stood at 15.7 nM. As for `O=C1CO[C@H]2CCN(C(=O)N3CCC4(CC3)CN(Cc3ccc(C(F)(F)F)cc3F)C4)C[C@H]2N1` [Example 13, (4aR,8aS)-6-(2-(2-Fluoro-4-(trifluoromethyl)benzyl)-2,7-diazaspiro[3.5]nonane-7-carbonyl)hexahydro-2H-pyrido[4,3-b][1,4]oxazin-3(4H)-one], the figure is 76.4 nM. As for `O=C1CO[C@H]2CCN(C(=O)N3CCC4(CCN(Cc5ccc(C(F)(F)F)cc5F)C4)C3)C[C@H]2N1` (stereo partly drawn) [Example 14, (4aR,8aS)-6-(7-(2-Fluoro-4-(trifluoromethyl)benzyl)-2,7-diazaspiro[4.4]nonane-2-carbonyl)hexahydro-2H-pyrido[4,3-b][1,4]oxazin-3(4H)-one], the figure is 268 nM. Molecule `O=C1CO[C@H]2CCN(C(=O)N3CCC4(CN(Cc5ccc(C(F)(F)F)cc5F)C4)C3)C[C@H]2N1` [Example 15, (4aR,8aS)-6-(2-(2-Fluoro-4-(trifluoromethyl)benzyl)-2,6-diazaspiro[3.4]octane-6-carbonyl)hexahydro-2H-pyrido[4,3-b][1,4]oxazin-3(4H)-one] returned an IC50 of 2030 nM. As for `O=C1CO[C@H]2CCN(C(=O)N3CC4(C3)CN(S(=O)(=O)c3ccc(F)cc3Cl)C4)C[C@H]2N1` [Example 16, (4aR,8aS)-6-(6-((2-Chloro-4-fluorophenyl)sulfonyl)-2,6-diazaspiro[3.3]heptane-2-carbonyl)hexahydro-2H-pyrido[4,3-b][1,4]oxazin-3(4H)-one], the figure is 228 nM; as for `O=C1CO[C@H]2CCN(C(=O)N3CC4(C3)CN(S(=O)(=O)c3ccc(C(F)(F)F)cc3F)C4)C[C@H]2N1` [Example 17, (4aR,8aS)-6-(6-((2-Fluoro-4-(trifluoromethyl)phenyl)sulfonyl)-2,6-diazaspiro[3.3]heptane-2-carbonyl)hexahydro-2H-pyrido[4,3-b][1,4]oxazin-3(4H)-one], 768 nM; as for `O=C1CO[C@H]2CCN(C(=O)N3CC4(CC(Oc5cc(C(F)(F)F)c(C(F)(F)F)cn5)C4)C3)C[C@H]2N1` [Example 22, (4aR,8aS)-6-(6-((4,5-Bis(trifluoromethyl)pyridin-2-yl)oxy)-2-azaspiro[3.3]heptane-2-carbonyl)hexahydro-2H-pyrido[4,3-b][1,4]oxazin-3(4H)-one], 3.8 nM. `O=C1CO[C@H]2CCN(C(=O)N3CC4(CC(Oc5ccc(C(F)(F)F)c(C(F)(F)F)n5)C4)C3)C[C@H]2N1` [Example 23, (4aR,8aS)-6-(6-((5,6-Bis(trifluoromethyl)pyridin-2-yl)oxy)-2-azaspiro[3.3]heptane-2-carbonyl)hexahydro-2H-pyrido[4,3-b][1,4]oxazin-3(4H)-one]: the IC50 amounted to 4.8 nM. As for `CN([C@H]1COC2(CCN(C(=O)N3CC[C@@H]4OCC(=O)N[C@@H]4C3)CC2)C1)S(=O)(=O)c1ccc(F)cc1Cl` [Example 24, 2-Chloro-4-fluoro-N-methyl-N-((R)-8-((4aR,8aS)-3-oxooctahydro-2H-pyrido[4,3-b][1,4]oxazine-6-carbonyl)-1-oxa-8-azaspiro[4.5]decan-3-yl)benzenesulfonamide], the figure is 20.9 nM. As for `O=C1CO[C@H]2CCN(C(=O)N3CC4(CC(Oc5ccc(C(F)(F)F)cn5)C4)C3)C[C@H]2N1` [Example 25, (4aR,8aS)-6-(6-((5-(Trifluoromethyl)pyridin-2-yl)oxy)-2-azaspiro[3.3]heptane-2-carbonyl)hexahydro-2H-pyrido[4,3-b][1,4]oxazin-3(4H)-one], the figure is 28.9 nM; as for `Cc1ccc(COC2CC3(C2)CN(C(=O)N2CC[C@@H]4OCC(=O)N[C@@H]4C2)C3)cc1C(F)(F)F` [Example 26, (4aR,8aS)-6-(6-((4-Methyl-3-(trifluoromethyl)benzyl)oxy)-2-azaspiro[3.3]heptane-2-carbonyl)hexahydro-2H-pyrido[4,3-b][1,4]oxazin-3(4H)-one], 31 nM; as for `O=C1CO[C@H]2CCN(C(=O)N3CCC4(CC3)CN(S(=O)(=O)c3ccc(F)cc3Cl)C4)C[C@H]2N1` [Example 27, (4aR,8aS)-6-(2-((2-Chloro-4-fluorophenyl)sulfonyl)-2,7-diazaspiro[3.5]nonane-7-carbonyl)hexahydro-2H-pyrido[4,3-b][1,4]oxazin-3(4H)-one], 33.1 nM. As for `O=C1CO[C@H]2CCN(C(=O)N3CC4(CC(OCc5ccc(C(F)(F)F)cc5F)C4)C3)C[C@H]2N1` [Example 28, (4aR,8aS)-6-(6-((2-Fluoro-4-(trifluoromethyl)benzyl)oxy)-2-azaspiro[3.3]heptane-2-carbonyl)hexahydro-2H-pyrido[4,3-b][1,4]oxazin-3(4H)-one], the figure is 36.4 nM; as for `CN([C@H]1COC2(CCN(C(=O)N3CC[C@@H]4OCC(=O)N[C@@H]4C3)CC2)C1)S(=O)(=O)c1ccccc1` [Example 30, N-Methyl-N-((R)-8-((4aR,8aS)-3-oxooctahydro-2H-pyrido[4,3-b][1,4]oxazine-6-carbonyl)-1-oxa-8-azaspiro[4.5]decan-3-yl)benzenesulfonamide], 49.3 nM; as for `O=C1CO[C@H]2CCN(C(=O)N3CCC4(CC3)CN(S(=O)(=O)c3ccc(C(F)(F)F)cc3)C4)C[C@H]2N1` [Example 37, (4aR,8aS)-6-(2-((4-(Trifluoromethyl)phenyl)sulfonyl)-2,7-diazaspiro[3.5]nonane-7-carbonyl)hexahydro-2H-pyrido[4,3-b][1,4]oxazin-3(4H)-one], 389 nM. In the case of `O=C1CO[C@H]2CCN(C(=O)N3CCC4(CC3)CC(Oc3ccc(F)cc3F)C4)C[C@H]2N1` [Example 40, (4aR,8aS)-6-[2-(2,4-Difluorophenoxy)-7-azaspiro[3.5]nonane-7-carbonyl]-4,4a,5,7,8,8a-hexahydropyrido[4,3-b][1,4]oxazin-3-one], it took 11.3 nM to reach half-maximal inhibition (IC50). To `O=C1CO[C@H]2CCN(C(=O)N3CCC4(CC3)CC(Oc3ccc(F)cc3Cl)C4)C[C@H]2N1` [Example 42, (4aR,8aS)-6-[2-(2-Chloro-4-fluoro-phenoxy)-7-azaspiro[3.5]nonane-7-carbonyl]-4,4a,5,7,8,8a-hexahydropyrido[4,3-b][1,4]oxazin-3-one] belongs 2.1 nM; to `O=C1CO[C@H]2CCN(C(=O)N3CC4(CC(COc5ccc(C(F)(F)F)cc5F)C4)C3)C[C@H]2N1` [Example 43, (4aR,8aS)-6-[6-[[2-Fluoro-4-(trifluoromethyl)phenoxy]methyl]-2-azaspiro[3.3]heptane-2-carbonyl]-4,4a,5,7,8,8a-hexahydropyrido[4,3-b][1,4]oxazin-3-one], 1 nM.
